Results as given in US8637536B2, “Pyrimidinone compounds for use in the treatment of diseases or conditions mediated by Lp-PLA2” (Glaxo Group Limited, priority 2010, dated 2014).
Where two headings read alike, the source gives them in different places.

How the values were obtained:
[1] = test system: proinflammatory (M1) and anti-inflammatory (M2) markers in macrophages; assay: EAE model (MBP immunization), ex vivo realtime PCR analysis of M1 and M2 macrophage markers; type: in vivo, rats; conditions: macrophages ex vivo (splenic, day 13 post MBP-immunization; CNS infiltrating cells), compound treated vs control
Procedure: A further study was carried out to study the impact of Lp-PLA2 inhibitors on modulating M1/M2 imbalance. In this study, rats were induced to develop experimental autoimmune encephalomyelitis (EAE) by immunization with myelin basic protein (MBP) antigen and treated with a known Lp-PLA2 inhibitor: 549-Methoxy-4-oxo-6,7-dihydro-4H-pyrimido[6,1-a]isoquinolin-2-yl)oxy)-2-(3-(trifluoromethyl)phenoxy)benzonitrile (See PCT application no. PCT/CN2011/001597) For preventive treatment, compound administration started at day 0 whereas it started at 7 day in therapeutic treatment. Rats were subsequently monitored for symptoms of EAE. Rats were immunized with MBP to develop EAE and symptoms were monitored daily. Plasma Lp-PLA2 activity and LysoPC concentration were determined at different time points through the course of EAE.
Ex vivo analysis of proinflammatory (M1) and anti-inflammatory (M2) markers in control and compound treated EAE […]. Splenic macrophages were harvested at day 13 post MBP-immunization and assayed for expression of a variety of markers by realtime PCR. CNS infiltrating cells were harvested and macrophages were analyzed for expression of M1 and M2 markers by realtime PCR.

[2] = biological target: T1, recombinant human Lp-PLA2 (Homo sapiens, UniProt Q13093); assay: Recombinant human Lp-PLA2 assay (rhLp-PLA2, PED6 assay); type: biochemical
T1 sequence (Q13093 22-441): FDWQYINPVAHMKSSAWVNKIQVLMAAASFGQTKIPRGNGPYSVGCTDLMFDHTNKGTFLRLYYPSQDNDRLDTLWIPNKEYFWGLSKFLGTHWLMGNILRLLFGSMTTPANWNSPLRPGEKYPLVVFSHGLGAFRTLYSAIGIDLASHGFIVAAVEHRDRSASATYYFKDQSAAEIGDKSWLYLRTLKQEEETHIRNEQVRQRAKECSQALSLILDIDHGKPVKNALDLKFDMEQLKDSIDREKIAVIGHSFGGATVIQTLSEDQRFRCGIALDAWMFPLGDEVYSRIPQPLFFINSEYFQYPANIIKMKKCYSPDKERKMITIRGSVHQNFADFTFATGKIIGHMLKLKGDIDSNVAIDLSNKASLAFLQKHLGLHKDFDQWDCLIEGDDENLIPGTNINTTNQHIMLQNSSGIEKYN
Description: (1) Recombinant Human Lp-PLA2 Assay (rhLp-PLA2) (Also Referred to as “PED6” Assay)
N-((6-(2,4-dinitrophenyl)amino)-hexanoyl)-2-(4,4-difluoro-5,7-dimethyl-4-bora-3a,4a-diaza-s-indacene-3-pentanoyl)-1-hexadecanoyl-sn-glycero-3-phosphoethanolamine, triethylammonium salt (PED6) is a commercially available fluorescently-labelled phospholipid, which is commercially available from Molecular Probes. There is a quenching […] position and a Bodipy fluorescein (FL) group in the sn2 position.
The PED6 assay was run as an unquenched 10 μL assay. Compounds source plate was prepared by making 1:3 (by volume) serial dilution of the compounds into pure DMSO on 384-well microplate. […] 5 μL of recombinant human Lp-PLA2 enzyme (2 nM rhLp-PLA2 in assay buffer of 50 mM HEPES, pH7.4, 150 mM NaCl, 1 mM CHAPS) was added to each well of the plate with compounds. Plates were centrifuged for 10 sec at 500 rpm. […] Plates were centrifuged for 10 sec at 500 rpm. Plate was covered to protect from light and incubated for 20 min at room temperature. […] PIC50 data, curve and QC analysis was conducted by using XL fit module in Excel.

[3] = biological target: T2, Lp-PLA2 from plasma (pooled human plasma) (Homo sapiens, UniProt Q13093); assay: Lp-PLA2 human plasma assay (Thio-PAF assay); type: biochemical; conditions: text thresholds, read-out: pIC50 values in the thio-PAF assay (converted)
T2 construct: 8 μL pooled human plasma; from tissue; host or cells: pooled human plasma
T2 sequence (Q13093 22-441): T1 sequence (Q13093 22-441)
Description: (3) Lipoprotein-Associated Phospholipase A2 (Lp-PLA2) Human Plasma Assay (Also Referred to as “Thio-PAF Assay”)
The human plasma assay utilizes a thioester analog of PAF (phosphatidylcholine), where hydrolysis yields to the formation of a phospholipid containing a free thiol group. The amount of thiol is quantitated continuously by reacting with CPM (7-diethylamino-3-(4′-maleimidylphenyl)-4-methylcoumarin), a maleimide which increases in fluoresence after Michael addition of thiols. This assay may detect the activity of Lp-PLA2 from plasma, as determined by specific inhibition by Lp-PLA2 inhibitors.
The thio-PAF assay was run as a quenched 15 μL assay. Compounds source plate was prepared by making 1:3 (by volume) serial dilution of the compounds into pure DMSO on 384-well microplate. 0.01 μL of compounds on compound source plate were transferred to 384 well Greiner 784076 (black) low-volume plates by ECHO liquid dispenser. 8 μL pooled human plasma, which was previously aliquoted and frozen, was added. Plates were centrifuged for 10 sec at 500 rpm. After 30 minutes preincubation, 2 μL of substrate (2.5 mM thio-PAF, 3.2 mM NEM (N-ethylmaleimide) [made fresh daily in DMSO], and 32 μM CPM [from a DMSO stock] in assay buffer of 50 mM HEPES, pH7.4, 150 mM NaCl, 1 mM CHAPS was added to 384 well Greiner 784076 (black) low-volume plates by BRAVO liquid handling station. Plates were centrifuged for 10 sec at 500 rpm. Plate was covered to protect from light and incubated for 2 min at room temperature. Reaction was quenched with 5 μL of 5% aqueous trifluoroacetic acid (TFA). Plates were covered to protect from light and incubated for 40 min at room temperature. Plates were read at ex: 380/em: 485 using-Envision microplate reader. PIC50 data, curve and QC analysis was conducted by using XLFit module in Excel.

[4] = text thresholds, upper limit for pIC50 in this assay is 9.3, read-out: pIC50 values in the PED6 assay (converted)
[5] = upper limit for pIC50 obtained in this PED6 assay is 9.3, read-out: rhLp-PLA2 (PED6 assay) (pIC50) (converted)

Row | Compound | M1 markers (expression by realtime PCR) [1] | M2 markers (expression by realtime PCR) [1] | IC50 [2, 4] [nM] | IC50 [3] [nM] | IC50 [2, 5] [nM]
1 | COc1ccc2c(c1)CCn1c-2cc(Oc2ccc(Oc3cccc(C(F)(F)F)c3)c(C#N)c2)nc1=O | decrease | increase | – | – | –
2 | COc1ncc(Cc2c[nH]c(OCCc3ccc(Oc4ccc(Cl)c(C(F)(F)F)c4)c(F)c3)nc2=O)cn1 [E172, 2-{[2-(4-{[4-chloro-3-(trifluoromethyl)phenyl]oxy}-3-fluorophenyl)ethyl]oxy}-5-{[2-(methyloxy)-5-pyrimidinyl]methyl}-4(1H)-pyrimidinone] | – | – | ≤ 1 | ≤ 100 | –
3 | O=c1nc(NCCc2ccc(Oc3ccc(F)cc3)cc2)[nH]cc1Cc1cncnc1 [E188, 2-{2-[4-(4-Fluoro-phenoxy)-phenyl]-ethylamino}-5-pyrimidin-5-ylmethyl-1H-pyrimidin-4-one] | – | – | ≤ 10 | ≤ 100 | –
4 | Cc1ncc(Cc2c[nH]c(NCCc3ccc(Oc4ccc(Cl)c(C(F)(F)F)c4)cc3)nc2=O)cn1 [E195, 2-{2-[4-(4-Chloro-3-trifluoromethyl-phenoxy)-phenyl]-ethylamino}-5-(2-methyl-pyrimidin-5-ylmethyl)-1H-pyrimidin-4-one] | – | – | ≤ 10 | ≤ 100 | –
5 | CN(CCc1ccc(Oc2ccc(Cl)c(C(F)(F)F)c2)cc1)c1nc(=O)c(Cc2cncnc2)cn1C [E196, 2-({2-[4-(4-Chloro-3-trifluoromethyl-phenoxy)-phenyl]-ethyl}-methyl-amino)-1-methyl-5-pyrimidin-5-ylmethyl-1H-pyrimidin-4-one] | – | – | ≤ 10 | ≤ 1000 | –
6 | COc1ncc(Cc2c[nH]c(NCCc3ccc(Oc4ccc(C(F)(F)F)cn4)c(C#N)c3)nc2=O)cn1 [E202, 5-{2-[5-(2-methoxy-pyrimidin-5-ylmethyl)-4-oxo-1,4-dihydro-pyrimidin-2-yl]-amino}-ethyl-2-(5-trifluoromethyl-pyridin-2-yloxy)benzonitrile] | – | – | ≤ 10 | ≤ 100 | 7.94
7 | O=c1nc(NCCc2ccc(Oc3ccc(C(F)(F)F)cc3)cc2)[nH]cc1Cc1cncnc1 [E204] | – | – | ≤ 10 | ≤ 100 | –
8 | N#Cc1cc(CCNc2nc(=O)c(Cc3cncnc3)c[nH]2)ccc1Oc1ccc(C(F)(F)F)cn1 [E205, 5-[2-(4-oxo-5-pyrimidin-5-ylmethyl-1,4-dihydro-pyrimidin-2-ylamino)-ethyl]-2-(5-trifluoromethyl-pyridin-2-yloxy)benzonitrile] | – | – | ≤ 10 | ≤ 1000 | –
9 | COc1ncc(Cc2c[nH]c(NCCc3ccc(Oc4ccc(C(F)(F)F)c(Cl)c4)cc3)nc2=O)cn1 [E206, 2-{2-[4-(3-chloro-4-trifluoromethyl-phenoxy)-phenyl]ethylamino}-5-(2-methoxy-pyrimidin-5-ylmethyl)-1H-pyrimidin-4-one] | – | – | ≤ 10 | ≤ 1000 | –
10 | Cc1ccc(Cc2c[nH]c(NCCc3ccc(Oc4ccc(Cl)c(C(F)(F)F)c4)cc3)nc2=O)cn1 [E210, 2-{2-[4-(4-Chloro-3-trifluoromethyl-phenoxy)-phenyl]-ethylamino}-5-(6-methyl-pyridin-3-ylmethyl)-1H-pyrimidin-4-one] | – | – | ≤ 10 | ≤ 100 | –
11 | O=c1ccc(Cc2c[nH]c(NCCc3ccc(Oc4ccc(Cl)c(C(F)(F)F)c4)cc3)nc2=O)c[nH]1 [E212, 2-{2-[4-(4-Chloro-3-trifluoromethyl-phenoxy)-phenyl]-ethylamino}-5-(6-oxo-1,6-dihydro-pyridin-3-ylmethyl)-1H-pyrimidin-4-one] | – | – | ≤ 10 | ≤ 100 | 6.31
12 | O=c1nc(NCCc2ccc(Oc3ccc(Cl)c(C(F)(F)F)c3)cc2)[nH]cc1Cc1ccnnc1 [E214, 2-{2-[4-(4-chloro-3-trifluoromethyl-phenoxy)-phenyl]ethylamino}-5-pyridazin-4-ylmethyl-1H-pyrimidin-4-one] | – | – | ≤ 10 | ≤ 100 | –
13 | O=c1cc(Cc2c[nH]c(NCCc3ccc(Oc4ccc(Cl)c(C(F)(F)F)c4)cc3)nc2=O)cc[nH]1 [E216, 2-{2-[4-(4-Chloro-3-trifluoromethyl-phenoxy)-phenyl]-ethylamino}-5-(2-oxo-1,2-dihydro-pyridin-4-ylmethyl)-1H-pyrimidin-4-one] | – | – | ≤ 10 | ≤ 1000 | 3.16
